The subject of assay [1] is 293T cells. In words: Growth assay (cytotoxicity). Type of assay: cell-based. Conditions: Homo sapiens, HEK-293T, 48 h, 2 day incubation, read-out: percentage growth at 5 uM. Here is the method: A growth assay is performed to evaluate the compounds disclosed in Table 1 for cytotoxicity. Briefly, 5,000,000 293T cells are resuspended in 18 mL of cDMEM for a final concentration of 277,777 cells/mL. 180 μL (50,000 cells) cDMEM was seeded per well in 96 well flat bottom plate, with some wells left unfilled. In a 96 well plate, […] cDMEM and 1 uL of any one of the compounds disclosed herein. 133.3 uL cDMEM is added to wells 1, 2, 3, 5, 6, 7, 9, 10, and 11 of row A. Wells are serially diluted with 66.7 uL (highest concentration on right, lowest on left) to the total concentrations shown below. 20 uL of each dilution is transferred in duplicate to the cells plated in the 96-well plate. The plate is then placed in a humidified chamber for a 2 day incubation, and then photographed (media is more yellow in wells with potent cell growth). Absorbance is then measured at […] (lower for more acidic media) and […] (higher for more acidic media).

Assay [2] deals with T1, IRE1α (Homo sapiens (Human), UniProt O75460). The assay can be described thus: In vitro luciferase assay (IRE1α Endoribonuclease Nanoluciferase Assay). Conditions: 293T cells, XBP1 luciferase reporter. It is filed as cell-based. The method, then:
Compounds disclosed herein were assessed for disruption of IRE-1 signaling using a IRE1α Endoribonuclease Nanoluciferase Assay. Briefly, 2.5×10^6 293T cells were seeded in a 10 cm^2 tissue culture plate. About 24 hours later, the cells were transfected with Effectene. In a 15 mL Tube, the following was added: 2 μg XBP1 luciferase reporter plasmid (PGK-Luc2-P2A-XBP1u-Nanoluciferase-PEST); 300 μl EC buffer; and 16 μl Enhancer, followed by incubation at room temp for 5 minutes. Next, 60 μl Effectene (Qiagen 301427) was added, followed by incubation at room temperature for 10 minutes. 2.6 mL cDMEM media was added. Old media was aspirated from the cells, followed by addition of 7 mL fresh media. Full transfection mixture was added dropwise to cells. Cells were incubated for 6 hours, followed by trypsinization, centrifugation and resuspension in 11 mL media. 100 uL of cells were plated per a well in a 96 well plate. A day later, ER stressors of choice+/−inhibitors were added. To harvest, media was aspirated from cells completely, then 50 uL 1× passive lysis buffer (Promega: E1941) was added per well and put on shaker (300 rpm) for 30 minutes at room temperature. Cells were centrifuged, and 15 uL sample per well was added to a new, opaque white 384 well plate (Corning 3570). 15 uL OneGlo (nanoluciferase kit, Promega N1630) was added. Plates were spun down, placed on shaker (300 rpm) for 10 minutes. Plates were read on luminometer, 1000 ms integration time per well. 15 uL Stop and Glo (nanoluciferase kit) was added. Plates were spun down, placed on shaker (300 rpm) for 10 minutes. Plates were read on luminometer, 1000 ms second integration time per well. Recordings are provided below in Table 4
(In general: Reporter assays use an easily measured gene product as a stand-in for the process of interest.)

The target in assay [3] is T1, IRE1α. In words: In vitro FRET assay. Conditions: XBP1 RNA probe. It is filed as biochemical. Here is the method:
In vitro FRET assay was performed to evaluate the ability of select compounds to inhibit IRE1, the results of which are summarized in Table 3. To perform the in vitro FRET assay, 1× complete assay buffer (CAB; […], 50 mM sodium citrate pH 7.15, 1 mM magnesium acetate, 0.02% tween 20) was used to dilute SignalChem IRE1α protein to a final concentration of 2 nM. Selected compounds were serially diluted with DMSO in a non-binding black 384-well plate for a total of 15 ul in each well. 2 ul of the serially diluted compound or DMSO control were then added to new wells containing 98 ul of 1×CAB, for a total volume of 100 ul, 10 ul of which were then transferred to wells of a new plate. 5 ul of the diluted IRE1α was then added to each well. 5 ul of a […] XBP1 RNA probe was then added to each well. Fluorescence was then read over 30 minutes in kinetic mode (485/515 nm).
Two RNA probes were used, XBP1 wildtype (SEQ ID NO: 2) which is able to be spliced by active IRE1α or XBP1 mutant (SEQ ID NO: 3) which is unable to be spliced. Each probe contained a 5′ 6-FAM modification and a 3′ IOWA Black FQ modification.
A second FRET assay was performed to assess ATP-mediated inhibition. In this case, compounds and IRE1α were prepared and combined as discussed above, with the addition of ATP up to 1 mM final concentration. This mixture was incubated at room temperature for 60 minutes and then 5 ul of 400 nM XBP1 wildtype or mutant RNA probe was added. Plates were then read over 30 minutes in kinetic mode (485/515 nm) and rate of fluorescence increase calculated for different compound dilutions to determine IC50 (Table 3).

One may read the EC50 as the concentration that produces a half-maximal response. By IC50 is commonly meant the concentration that gives 50% inhibition. The low end stands for greater potency in that assay, the high end for weaker potency in that assay.

T1 sequence (O75460 19-977): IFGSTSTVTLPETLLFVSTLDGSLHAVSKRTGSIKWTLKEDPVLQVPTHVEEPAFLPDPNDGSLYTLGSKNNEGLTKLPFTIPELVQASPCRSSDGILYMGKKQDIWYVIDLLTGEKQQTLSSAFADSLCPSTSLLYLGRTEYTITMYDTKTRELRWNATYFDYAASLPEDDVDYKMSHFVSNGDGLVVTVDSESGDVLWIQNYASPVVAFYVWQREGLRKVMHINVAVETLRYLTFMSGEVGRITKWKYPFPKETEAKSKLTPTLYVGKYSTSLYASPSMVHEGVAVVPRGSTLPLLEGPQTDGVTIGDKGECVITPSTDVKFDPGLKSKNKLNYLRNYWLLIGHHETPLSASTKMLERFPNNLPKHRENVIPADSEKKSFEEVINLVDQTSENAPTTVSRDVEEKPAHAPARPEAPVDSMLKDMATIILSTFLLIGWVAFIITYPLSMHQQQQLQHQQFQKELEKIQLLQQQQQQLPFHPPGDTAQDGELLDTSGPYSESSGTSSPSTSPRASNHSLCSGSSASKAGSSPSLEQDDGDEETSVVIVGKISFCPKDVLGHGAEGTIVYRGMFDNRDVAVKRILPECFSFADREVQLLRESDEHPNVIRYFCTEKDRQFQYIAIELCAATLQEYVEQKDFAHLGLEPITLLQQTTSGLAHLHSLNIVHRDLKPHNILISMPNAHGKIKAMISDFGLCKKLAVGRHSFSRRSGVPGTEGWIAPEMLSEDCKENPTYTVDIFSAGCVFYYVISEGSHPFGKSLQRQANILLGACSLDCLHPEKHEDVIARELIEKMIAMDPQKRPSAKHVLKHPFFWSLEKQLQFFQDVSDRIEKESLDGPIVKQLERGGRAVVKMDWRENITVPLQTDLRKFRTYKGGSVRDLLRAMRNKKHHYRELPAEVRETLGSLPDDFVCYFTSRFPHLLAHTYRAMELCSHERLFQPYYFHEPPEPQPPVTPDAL

Regarding `COc1nc(NS(=O)(=O)c2ccccc2Cl)ccc1CCc1cnc(NC2CCC(N(C)C)CC2)nc1` (stereo not shown) [Compound 19, 2-chloro-N-(5-(2-(2-(((1r,4r)-4-(dimethylamino)cyclohexyl)amino)pyrimidin-5-yl)ethyl)-6-methoxypyridin-2-yl)benzenesulfonamide], the viability at 5 µM in assay [1] was more than 75%. The EC50 in assay [2] fell in the range of 5 to 50 nM. Moreover, in assay [3], the IC50 is not above 1 nM.
Consider `NC1CCC(Nc2ncc(CCc3ccc(NS(=O)(=O)c4ccccc4Cl)cc3)cn2)CC1` (stereo not shown) [Compound 1, N-(4-(2-(2-(((1r,4r)-4-aminocyclohexyl)amino)pyrimidin-5-yl)ethyl)phenyl)-2-chlorobenzenesulfonamide], for which the viability at 5 µM in assay [1] is more than 75%. The compound further registered an EC50 in assay [2] of 50 to 100 nM. The same compound displayed an IC50 in assay [3] of 1 to 5 nM.
For `Cc1cc(NS(=O)(=O)c2ccccc2Cl)ccc1/C=C/c1cnc(NC2CCC(N(C)C)CC2)nc1` (stereo not shown) [Compound 26, 2-chloro-N-(4-((E)-2-(2-(((1r,4r)-4-(dimethylamino)cyclohexyl)amino)pyrimidin-5-yl)vinyl)-3-methylphenyl)benzenesulfonamide], the viability at 5 µM in assay [1] is more than 35%. In addition, the EC50 in assay [2] was not above 5 nM. The same compound gave an IC50 in assay [3] not above 1 nM.
In the case of `Cc1nc(NS(=O)(=O)c2ccccc2Cl)c(F)cc1/C=C/c1cnc(NC2CCC(N(C)C)CC2)nc1` (stereo not shown) [Compound 22, 2-chloro-N-(5-((E)-2-(2-(((1r,4r)-4-(dimethylamino)cyclohexyl)amino)pyrimidin-5-yl)vinyl)-3-fluoro-6-methylpyridin-2-yl)benzenesulfonamide], in assay [2], the EC50 was not above 5 nM. Also, in assay [3], the IC50 is not above 1 nM.
As to `Cc1nc(NS(=O)(=O)c2ccccc2Cl)c(F)cc1CCc1cnc(NC2CCC(N(C)C)CC2)nc1` (stereo not shown) [Compound 24, 2-chloro-N-(5-(2-(2-(((1r,4r)-4-(dimethylamino)cyclohexyl)amino)pyrimidin-5-yl)ethyl)-3-fluoro-6-methylpyridin-2-yl)benzenesulfonamide], the viability at 5 µM in assay [1] is more than 75%. Further, the IC50 in assay [3] lay in the range of 1 to 5 nM.
`Cc1nc(NS(=O)(=O)c2cccc(F)c2Cl)ccc1/C=C/c1cnc(NC2CCC(N(C)C)CC2)nc1` (stereo not shown) [Compound 33, 2-chloro-N-(5-((E)-2-(2-(((1r,4r)-4-(dimethylamino)cyclohexyl)amino)pyrimidin-5-yl)vinyl)-6-methylpyridin-2-yl)-3-fluorobenzenesulfonamide] returned a concentration giving a half-maximal response (EC50) in assay [2] not above 5 nM. Further, the IC50 in assay [3] was not above 1 nM.
In the same order, the values of `CN(C)C1CCC(Nc2ncc(/C=C/c3ccc(NS(=O)(=O)c4ccccc4Cl)cc3)cn2)CC1` (stereo not shown) [Compound 34, 2-chloro-N-(4-((E)-2-(2-(((1r,4r)-4-(dimethylamino)cyclohexyl)amino)pyrimidin-5-yl)vinyl)phenyl)benzenesulfonamide] are not above 5 nM and not above 1 nM.
For the compound `NC1CCC(Nc2ncc(/C=C/c3ccc(NS(=O)(=O)c4ccccc4Cl)nn3)cn2)CC1` (stereo not shown) [Compound 2, N-(6-((E)-2-(2-(((1r,4r)-4-aminocyclohexyl)amino)pyrimidin-5-yl)vinyl)pyridazin-3-yl)-2-chlorobenzenesulfonamide], the viability at 5 µM in assay [1] is more than 75%. Also, in assay [2], the EC50 was in the range of 50 to 100 nM.
For the compound `COc1nc(NS(=O)(=O)c2ccccc2Cl)c(F)cc1/C=C/c1cnc(NC2CCC(N(C)C)CC2)nc1` (stereo not shown) [Compound 50, 2-chloro-N-(5-((E)-2-(2-(((1r,4r)-4-(dimethylamino)cyclohexyl)amino)pyrimidin-5-yl)vinyl)-3-fluoro-6-methoxypyridin-2-yl)benzenesulfonamide], the EC50 in assay [2] lay within 5 to 50 nM. The IC50 in assay [3] is not above 1 nM.
Take `COc1cc(NS(=O)(=O)c2ccccc2Cl)ccc1/C=C/c1cnc(NC2CCC(N(C)C)CC2)nc1` (stereo not shown) [Compound 55, 2-chloro-N-(4-((E)-2-(2-(((1r,4r)-4-(dimethylamino)cyclohexyl)amino)pyrimidin-5-yl)vinyl)-3-methoxyphenyl)benzenesulfonamide]: the 50% effective concentration (EC50) in assay [2] is not above 5 nM. Also, in assay [3], the IC50 is not above 1 nM.
In the same order, the values of `COc1nc(NS(=O)(=O)c2cccc(F)c2Cl)ccc1/C=C/c1cnc(NC2CCC(N(C)C)CC2)nc1` (single isomer, unassigned) [Compound 39, 2-chloro-N-(5-((E)-2-(2-(((1r,4r)-4-(dimethylamino)cyclohexyl)amino)pyrimidin-5-yl)vinyl)-6-methoxypyridin-2-yl)-3-fluorobenzenesulfonamide] are not above 5 nM and not above 1 nM.
As for `CNC1CCC(Nc2ncc(C=Cc3ccc(NS(=O)(=O)c4ccccc4Cl)nc3C)cn2)CC1` (stereo not shown) [Compound 44, 2-chloro-N-(6-methyl-5-(2-(2-(((1r,4r)-4-(methylamino)cyclohexyl)amino)pyrimidin-5-yl)vinyl)pyridin-2-yl)benzenesulfonamide], the EC50 in assay [2] was in the range of 5 to 50 nM. This compound yielded an IC50 in assay [3] not above 1 nM.
In the same order, the values of `CN(C)C1CCC(Nc2ncc(/C=C/c3ccc(NS(=O)(=O)c4ccccc4Cl)nc3)cn2)CC1` (stereo not shown) [Compound 36, 2-chloro-N-(5-((E)-2-(2-(((1r,4r)-4-(dimethylamino)cyclohexyl)amino)pyrimidin-5-yl)vinyl)pyridin-2-yl)benzenesulfonamide] are not above 5 nM and not above 1 nM.
In the case of `CNC1CCC(Nc2ncc(/C=C/c3ccc(NS(=O)(=O)c4ccccc4Cl)nc3OC)cn2)CC1` (stereo not shown) [Compound 48, 2-chloro-N-(6-methoxy-5-((E)-2-(2-(((1r,4r)-4-(methylamino)cyclohexyl)amino)pyrimidin-5-yl)vinyl)pyridin-2-yl)benzenesulfonamide], in assay [2], the EC50 was not above 5 nM. Further, the IC50 in assay [3] was not above 1 nM.
For `Cc1cc(NS(=O)(=O)c2ccccc2Cl)c(F)cc1/C=C/c1cnc(NC2CCC(N(C)C)CC2)nc1` (stereo not shown) [Compound 28, 2-chloro-N-(4-((E)-2-(2-(((1r,4r)-4-(dimethylamino)cyclohexyl)amino)pyrimidin-5-yl)vinyl)-2-fluoro-5-methylphenyl)benzenesulfonamide], the EC50 in assay [2] was not above 5 nM. Further, the IC50 in assay [3] is not above 1 nM.
For the compound `COc1nc(NS(=O)(=O)c2ccccc2Cl)ccc1CCc1cnc(NC2CCC(N)CC2)nc1` (stereo not shown) [Compound 10, N-(5-(2-(2-(((1r,4r)-4-aminocyclohexyl)amino)pyrimidin-5-yl)ethyl)-6-methoxypyridin-2-yl)-2-chlorobenzenesulfonamide], the viability at 5 µM in assay [1] was more than 75%. In addition, the IC50 in assay [3] is not above 1 nM.
Regarding `Cc1nc(NS(=O)(=O)c2ccccc2Cl)ccc1/C=C/c1cnc(NC23CCC(N)(CC2)CC3)nc1` [Compound 49, (E)-N-(5-(2-(2-((4-aminobicyclo[2.2.2]octan-1-yl)amino)pyrimidin-5-yl)vinyl)-6-methylpyridin-2-yl)-2-chlorobenzenesulfonamide], the EC50 in assay [2] lay within 100 to 10000 nM. Also, the IC50 in assay [3] was not above 1 nM.

Source of the values: patent publication US11945784B2, “IRE1 small molecule inhibitors” (Cornell University, priority 2018, dated 2024).
